Values after ≈ are worked out from the molar mass of the structure shown.
Columns and labels:
[1] = tested on: L. donovani axenic amastigotes; test: L. donovani axenic amastigote proliferation, colorimetric assay; type: cell-based, Leishmania donovani; settings: for activity in the axenic amastigote L. donovani assay (in words): screening / confirmation; for IC50: Leishmania donovani, L. donovani axenic amastigotes
Procedure: As part of an ongoing search for potential treatments for leishmaniasis, a screening campaign against available compounds was conducted using axenic amastigotes of Leishmania donovani, a protozoan that is known to cause visceral leishmaniasis (VL). […] Prior to taking on the development of novel analogs, we sought to synthesize an analog to confirm that the activity was readily reproducible. […] As a byproduct, compound 2a, which arose from the hydrolysis of the product amide to the corresponding carboxylic acid (not shown) was also isolated and evaluated (vide infra).
(§1) With a source of these compounds in hand, their activity against Leishmania donovani cells was evaluated in two different assays. L. donovani axenic amastigotes were generated from promastigotes and maintained in an appropriate medium such that their proliferation could be evaluated using a colorimetric assay. Additionally, macrophages were plated into a 96-well plate and a medium containing L. donovani was added and allowed to infect the macrophage cells. Subsequent addition of the compound to be evaluated was added to the wells prior to incubation and evaluation. Finally, a counterscreen for cytotoxicity was conducted using a J774 murine mouse cell line.

[2] = Counterscreen for cytotoxicity; type: cell-based; settings: mouse, J774 cells (murine macrophage cell line)
Procedure: as §1

[3] = tested on: L. donovani infected macrophage cells; test: L. donovani infected macrophage assay; type: cell-based; settings: Leishmania donovani, macrophages infected with L. donovani
Procedure: as §1

| Compound | activity in the axenic amastigote L. donovani assay (in words) [1] | IC50 [1] [µg/mL] | IC50 [2] [µg/mL] | IC50 [3] [µg/mL] |
| --- | --- | --- | --- | --- |
| Cc1nn(-c2ccc(C(N)=O)c(N[C@H]3CC[C@H](O)CC3)c2)c2c1C(=O)CC(C)(C)C2 [Compound 1, reference compound] | most active | – | – | – |
| COCCCNc1cc(-n2nc(C)c3c2CC(C)(C)CC3=O)ccc1C(N)=O [Compound 2] | equally active as 1 | 0.646 (≈ 1.68 µM) | 3.52 (≈ 9.16 µM) | 0.879 (≈ 2.29 µM) |
| COCCCNc1cc(-n2nc(C)c3c2CN(Cc2ccccc2)CC3=O)ccc1C(N)=O [Compound 3a] | – | 2.29 (≈ 5.11 µM) | > 50 | 6.33 (≈ 14.1 µM) |
| COCCCNc1cc(-n2nc(C)c3c2CNCC3=O)ccc1C(N)=O [Compound 3b] | – | 3.9 (≈ 10.9 µM) | > 50 | > 10 |
| COCCCNc1cc(-n2nc(C)c3c2CN(C(C)=O)CC3=O)ccc1C(N)=O [Compound 3c] | – | 13.9 (≈ 34.8 µM) | > 50 | 1.06 (≈ 2.65 µM) |
| CCC(=O)N1CC(=O)c2c(C)nn(-c3ccc(C(N)=O)c(NCCCOC)c3)c2C1 [Compound 3d] | – | 6.42 (≈ 15.5 µM) | > 50 | 3.54 (≈ 8.55 µM) |
| COCCCNc1cc(-n2nc(C)c3c2CN(C(=O)C(C)C)CC3=O)ccc1C(N)=O [Compound 3e] | – | 1.9 (≈ 4.45 µM) | 37.3 (≈ 87.3 µM) | 3.54 (≈ 8.28 µM) |
| COCCCNc1cc(-n2nc(C)c3c2CN(C(=O)COC)CC3=O)ccc1C(N)=O [Compound 3f] | – | 4.45 (≈ 10.4 µM) | > 50 | 3.57 (≈ 8.31 µM) |
| COCCCNc1cc(-n2nc(C)c3c2CN(C(=O)C2CCCC2)CC3=O)ccc1C(N)=O [Compound 3g] | – | 2.99 (≈ 6.59 µM) | > 50 | 1.52 (≈ 3.36 µM) |
| COCCCNc1cc(-n2nc(C)c3c2CN(C(=O)c2ccc(C)cc2)CC3=O)ccc1C(N)=O [Compound 3h] | – | 2.6 (≈ 5.48 µM) | 26.3 (≈ 55.3 µM) | 1.75 (≈ 3.69 µM) |
| COCCCNc1cc(-n2nc(C)c3c2CN(S(C)(=O)=O)CC3=O)ccc1C(N)=O [Compound 3i] | – | > 20 | 25.5 (≈ 58.6 µM) | > 5.38 |
| COCCCNc1cc(-n2nc(C)c3c2CN(C(=O)NCc2ccccc2)CC3=O)ccc1C(N)=O [Compound 3j] | – | > 20 | > 50 | > 10 |
| COCCCNc1cc(-n2nc(C)c3c2CN(C(N)=O)CC3=O)ccc1C(N)=O [Compound 3k] | – | > 20 | > 50 | > 10 |
| COCCCNc1cc(NC2CC(C)(C)Cc3ncccc32)ccc1C(N)=O (centres unmarked) [Compound 6] | – | 2.55 (≈ 6.67 µM) | 6.75 (≈ 17.6 µM) | 5.38 (≈ 14.1 µM) |
| Cc1nn(-c2ccc3c(N)ncnc3c2)c2c1C(=O)CC(C)(C)C2 [Compound 9c] | – | 2.42 (≈ 7.53 µM) | > 50 | 1.33 (≈ 4.15 µM) |
| COCCCNc1cc(-n2nc(C)c3c2CCCC3=O)ccc1C(N)=O [Compound 10] | – | 2.65 (≈ 7.45 µM) | 12.6 (≈ 35.2 µM) | 0.65 (≈ 1.82 µM) |
